# Reference: patent US20260151347A1, “CELL-DERIVED MICROPARTICLE DELIVERY SYSTEM AND USES THEREOF” (priority 2021, published 2026)
# System: 4T1-luc2 cells
# Assay: In vitro validation of released drug efficacy
# Assay type: cell-based
# Details: after 4 hours, free drug dose equals cumulative cisplatin release at 4 hours
# Text: Additional controls include unloaded MPs and untreated cells. […] As shown in these experiments, the local release of high levels of payload may result in a stark increase in efficiency for the treatment of diseased cells.
structure (smiles),measurement,value
N.N.[Cl][Pt][Cl] [Cisplatin],cell death as compared to control,little to no cell death
